Tested on: Maus
Assay: Tail Suspension Test in the mouse
Type: in vivo
Description: Der "Tail Suspension Test" detektiert antidepressive und anxiolytische Aktivität und folgt der Methode von Porsolt et al. (Porsolt R.D., Bertin A., Jalfre M., Behaviourial despair in mice: a primary screening test for antidepressants. Arch. Int. Pharmacodyn. Ther., 229, 327-336, 1977) und Stéru et al. (Stéru L., .Chermat R., Thierry B, Simon P. The Tail Suspension Test: a new method for screening antidepressants in mice. Psychopharmacology, 85, 367-370, 1985). Nagetiere, die man am Schwanz herabhängen läßt, werden schnell immobil. Antidepressiva verringern die Dauer der Immobilität, während Tranquilantien die Dauer der Immobilität verlängern. Das Verhalten der Tiere wurde über 6 Minuten beobachtet, vorzugsweise mit einem computerisierten Gerät (Itemac-TST) entwickelt von Stéru et al. (1985) (s.o.). Mehrere Mäuse wurden parallel untersucht und die Immobilitätsdauer bestimmt. Dieser Parameter ist analog zu dem im "behavioral despair"-Test (Stéru L., Chermat R., Thierry B., Mico J.A., Lenègre A., Stéru M., Simon P. Porsolt R.D., The automated Tail Suspension Test: a computerized device which differentiates psychotropic drugs. Prog. Neuropsychopharmacol. Exp. Psychiatry, 11, 659-671, 1987) verwendeten. 10-20 Mäuse wurden pro Gruppe untersucht. […]. In diesem Verhaltensmodell führen Antidepressiva wie auch in anderen Verhaltensmodellen zu einer Verkürzung der Immobilitätsphase, während Opioide wie Morphin die Immobilitätsphase verlängern. Beim Vorhandensein beider Wirkkomponenten überlagern sich beide Effekte, so daß nur noch eine geringe Motilitätsveränderung resultiert. Das wurde dadurch aufgehoben, daß die Opiatkomponente durch Vorbehandlung mit Naloxon weggeblockt wurde. Nach der Naloxonvorbehandlung trat die stimulierende Wirkung von (1R,2R)-3-(2-Dimethylaminomethyl-cyclohexyl)-phenol, die ohne Vorbehandlung nur gering war, deutlich in Erscheinung. Darum ist die Substanz, insbesondere in Kombination mit einer Schmerztherapie sehr geeignet. Die Ergebnisse dieser Untersuchungen zusammen mit Referenzsubstanzen sind in der Tabelle 2 zusammengefaßt. Tabelle 2: Wirkung von (1R,2R)-3-(2-Dimethylaminomethyl-cyclohexyl)-phenol, Imipramin und Morphin in "Tail Suspension" Test an der Maus (10 - 20 Tiere/Gruppe)

[1] = 31,6 mg/kg i.p., 30 min before test

Row | SMILES | Imobilitätsdauer % Änderung gegenüber der Lösungsmittelkontrolle (4,64 mg/kg i.p., 30 min before test) | Imobilitätsdauer % Änderung gegenüber der Lösungsmittelkontrolle (10,0 mg/kg i.p., 30 min before test) | Imobilitätsdauer % Änderung gegenüber der Lösungsmittelkontrolle (21,5 mg/kg i.p. + 1,0 mg/kg i.v. Naloxon (pretreatment)) | Imobilitätsdauer % Änderung gegenüber der Lösungsmittelkontrolle (21,5 mg/kg i.p., 30 min before test) | Imobilitätsdauer % Änderung gegenüber der Lösungsmittelkontrolle (31,6 mg/kg i.p. + 1,0 mg/kg i.v. Naloxon (pretreatment)) | Imobilitätsdauer % Änderung gegenüber der Lösungsmittelkontrolle [1] | Imobilitätsdauer % Änderung gegenüber der Lösungsmittelkontrolle (1,0 mg/kg i.v. alone)
1 | CN(C)C[C@@H]1CCCC[C@H]1c1cccc(O)c1 [(1R,2R)-3-(2-Dimethylaminomethyl-cyclohexyl)-phenol] | +6% | +12% | -90% | +9% | -85% | -13% | 
2 | CN(C)CCCN1c2ccccc2CCc2ccccc21 [Imipramin, reference compound] |  |  |  |  |  | -61% | 
3 | C=CCN1CC[C@]23c4c5ccc(O)c4O[C@H]2C(=O)CC[C@@]3(O)[C@H]1C5 [Naloxon, reference compound] |  |  |  |  |  |  | -15%

Source: patent publication EP1530462B1, “1-PHENYL-2-DIMETHYLAMINOMETHYL CYCLOHEXANE COMPOUNDS USED FOR THE THERAPY OF DEPRESSIVE SYMPTOMS, PAIN, AND INCONTINENCE” (priority 2002, dated 2004)
